{
  "source": "patent US20260014122A1",
  "about": "“DRUG FOR LOWERING BLOOD LDL CHOLESTEROL” (KOWA COMPANY, LTD., priority 2022, published 2026)",
  "system": "patient of a nonalcoholic fatty liver disease (NAFLD)",
  "test": "Effect of compound A on blood LDL-C and cholesterol synthesis/absorption markers in NAFLD patients, compared with placebo",
  "type": "in vivo, human",
  "settings": "for fasting blood LDL-C concentration (rate of change from baseline): FIG. 1",
  "key": {"[1]": {"settings": "NAFLD patients, 0.4 mg per day oral, 8 weeks, vs placebo, FIG. 3"}},
  "data": [
    {"smiles": "CC[C@@H](Oc1cccc(CN(CCCOc2ccc(OC)cc2)c2nc3ccccc3o2)c1)C(=O)O", "note": "[compound A, (R)-2-[3-[[N-(benzoxazol-2-yl)-N-3-(4-methoxyphenoxy)propyl]aminomethyl]phenoxy]butyric acid]", "values": [
      {"measurement": "fasting blood LDL-C concentration (rate of change from baseline)", "setting": "NAFLD patients who did not take any existing agent for reducing LDL-C, 0.4 mg per day oral, 12 weeks, vs placebo", "result": "reduced a fasting blood LDL-C concentration as compared to the placebo administration"},
      {"measurement": "fasting blood LDL-C concentration (rate of change from baseline)", "setting": "NAFLD patients, entire group including patients taking an existing agent for reducing LDL-C, 0.4 mg per day oral (0.2 mg twice a day), 12 weeks, vs placebo", "result": "reduced a fasting blood LDL-C concentration as compared to the placebo administration"},
      {"measurement": "fasting blood concentration of campesterol (absorption marker for cholesterol), rate of change from baseline", "setting": "[1]", "result": "reduced the fasting blood concentration of sitosterol and the fasting blood concentration of campesterol"},
      {"measurement": "fasting blood concentration of lathosterol (synthesis marker for cholesterol), rate of change from baseline", "setting": "[1]", "result": "reduced the fasting blood concentration of lathosterol"},
      {"measurement": "fasting blood concentration of sitosterol (absorption marker for cholesterol), rate of change from baseline", "setting": "[1]", "result": "reduced the fasting blood concentration of sitosterol"},
      {"measurement": "reducing effect on LDL-C for each initial value of the blood LDL-C", "setting": "NAFLD patients, 0.4 mg per day oral, 12 weeks, FIG. 2", "result": "became larger as the blood LDL-C concentration before the administration thereof increased"}
    ]}
  ]
}
